Test results reported in patent publication US10364256B2 (GlaxoSmithKline Intellectual Property Development Limited, priority 2015, dated 2019).

Columns and labels:
[1] = molecular target: T1, full length Keap1 protein / full length NRF2 protein (Homo sapiens, UniProt Q14145); test: NRF2-Keap1 TR-FRET Assay; assay type: binding; conditions: 25 nM Keap1-FlagHis and 50 nM biotin-NRF2 added
T1 construct: full length NRF2 protein and full length Keap1 protein (Keap1 exists a dimer) are used; His
In short: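 Full-length Keap1-FlagHis preincubated with compound 2.25 h at 37 °C, then biotin-NRF2 added for 1.25 h at 4 °C, in Tris pH 8.0 with MgCl2, NaCl, BSA, DTT, CHAPS. TR-FRET 665/615 nm ratio normalised to with- and without-protein 1% DMSO controls; pIC50 from four-parameter fit.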

[2] = molecular target: T1, full length Keap1 protein / full length NRF2 protein; test: NRF2-Keap1 TR-FRET Low Protein Assay; assay type: binding; conditions: 1.25 nM Keap1 FlagHis and 2.5 nM biotin-NRF2 added
In short: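 Flag-tagged full-length Keap1 was preincubated with compound (3-fold series) for 2.25 h at 37 °C in Tris pH 8.0/MgCl2/NaCl/BSA/DTT/CHAPS. Biotin-Avi-NRF2 (added at 2.5 nM) was then bound for 1.25 h at 4 °C. Eu-streptavidin/anti-Flag-APC TR-FRET (665/615 nm) was read after 1 h at RT, and pIC50 came from a four-parameter fit.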

T1 sequence (Q14145 whole entry): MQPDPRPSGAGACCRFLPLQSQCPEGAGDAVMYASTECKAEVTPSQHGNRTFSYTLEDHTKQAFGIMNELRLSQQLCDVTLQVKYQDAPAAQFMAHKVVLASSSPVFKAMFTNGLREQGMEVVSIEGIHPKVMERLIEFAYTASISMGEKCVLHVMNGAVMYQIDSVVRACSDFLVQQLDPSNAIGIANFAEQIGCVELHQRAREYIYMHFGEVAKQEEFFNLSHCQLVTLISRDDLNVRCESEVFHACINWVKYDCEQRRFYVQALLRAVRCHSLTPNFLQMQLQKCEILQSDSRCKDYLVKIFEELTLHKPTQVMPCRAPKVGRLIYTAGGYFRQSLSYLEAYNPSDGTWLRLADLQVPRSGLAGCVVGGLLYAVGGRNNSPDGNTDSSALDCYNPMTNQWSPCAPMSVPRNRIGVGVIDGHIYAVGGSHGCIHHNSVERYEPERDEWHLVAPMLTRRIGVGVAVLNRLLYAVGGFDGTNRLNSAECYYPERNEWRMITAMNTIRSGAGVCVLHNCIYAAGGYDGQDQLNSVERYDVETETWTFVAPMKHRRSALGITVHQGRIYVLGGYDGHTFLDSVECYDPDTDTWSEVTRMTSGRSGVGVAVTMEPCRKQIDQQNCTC

| Structure (SMILES) | IC50 [1] | IC50 [2] |
| --- | --- | --- |
| CC(Oc1cccc(-c2cccc(-n3ncc(C(=O)O)c3[C@H]3C[C@@H]3c3cn(C)nn3)c2)c1)C1CCCCCC1 (mixture of isomers) [Example 230, 1-(3′-(1-Cycloheptylethoxy)-[1,1′-biphenyl]-3-yl)-5-((1,2-trans)-2-(1-methyl-1H-1,2,3-triazol-4-yl)cyclopropyl)-1H-pyrazole-4-carboxylic acid] | 10 to 100 nM | 10 to 100 nM |
| Cn1cc([C@@H]2C[C@H]2c2c(C(=O)O)cnn2-c2cccc(-c3cccc(OCC4CCCSC4)c3)c2)nn1 (mixture of isomers) [Example 144, 5-((1,2-trans)-2-(1-Methyl-1H-1,2,3-triazol-4-yl)cyclopropyl)-1-(3′-((tetrahydro-2H-thiopyran-3-yl)methoxy)-[1,1′-biphenyl]-3-yl)-1H-pyrazole-4-carboxylic Acid] | 100 to 1000 nM | 10 to 100 nM |
| Cn1cc(C2CC2c2c(C(=O)O)cnn2-c2cccc(-c3cccc(OCC4CCN(C(=O)OC(C)(C)C)CC4)c3)c2)nn1 (stereo not shown) [Example 167, 1-(3′-((1-(tert-Butoxycarbonyl)piperidin-4-yl)methoxy)-[1,1′-biphenyl]-3-yl)-5-(2-(1-methyl-1H-1,2,3-triazol-4-yl)cyclopropyl)-1H-pyrazole-4-carboxylic acid] | 100 to 1000 nM | 10 to 100 nM |
| CCC[C@@H]1CCCCN1C(=O)c1cccc(-c2cccc(-n3ncc(C(=O)O)c3C3CC3c3cnn(C)c3)c2)c1 (stereo partly drawn) [Example 213, 5-(2-(1-Methyl-1H-pyrazol-4-yl)cyclopropyl)-1-(3′-((R)-2-propylpiperidine-1-carbonyl)-[1,1′-biphenyl]-3-yl)-1H-pyrazole-4-carboxylic Acid] | 10 to 100 nM | < 10 nM |

More lines, now with the values ahead:

| IC50 [1] | IC50 [2] | Structure (SMILES) |
| --- | --- | --- |
| 100 to 1000 nM | 10 to 100 nM | CC(Oc1cccc(-c2cccc(-n3ncc(C(=O)O)c3C3CC3c3cn(C)nn3)c2)c1)c1ccccc1 (stereo not shown) [Example 235, 5-(2-(1-Methyl-1H-1,2,3-triazol-4-yl)cyclopropyl)-1-(3′-(1-phenylethoxy)-[1,1′-biphenyl]-3-yl)-1H-pyrazole-4-carboxylic Acid] |
| 100 to 1000 nM | 10 to 100 nM | Cn1cc(C2CC2c2c(C(=O)O)cnn2-c2cccc(-c3cccc(C(=O)C4CCCCC4)c3)c2)nn1 (stereo not shown) [Example 243, 1-(3′-(Cyclohexanecarbonyl)-[1,1′-biphenyl]-3-yl)-5-(2-(1-methyl-1H-1,2,3-triazol-4-yl)cyclopropyl)-1H-pyrazole-4-carboxylic Acid] |
| 100 to 1000 nM | 10 to 100 nM | Cn1cc([C@@H]2C[C@H]2c2c(C(=O)O)cnn2-c2cccc(-c3cccc(OCC4CCC(F)(F)CC4)c3)c2)nn1 (racemic) [Example 145, 1-(3′-((4,4-Difluorocyclohexyl)methoxy)-[1,1′-biphenyl]-3-yl)-5-((1,2-trans)-2-(1-methyl-1H-1,2,3-triazol-4-yl)cyclopropyl)-1H-pyrazole-4-carboxylic acid] |
| 100 to 1000 nM | 100 to 1000 nM | CC(Oc1cccc(-c2cccc(-n3ncc(C(=O)O)c3[C@H]3C[C@@H]3c3cn(C)nn3)c2)c1)C1CCCCC1 (single isomer, unassigned) [Example 191] |
